Assay results taken from patent US10221173B2, “Chemical compounds” (AstraZeneca AB, priority 2017, dated 2019).
pIC50: −log10 of the molar value. Values after ≈ are worked out from the molar mass of the structure shown.

Legend:
[1] = target: recombinant human Estrogen Receptor alpha ligand binding domain (ER alpha-LBD (GST)) (Homo sapiens (Human), UniProt P03372); assay: ERα binding assay (LanthaScreen TR-FRET competition)
[2] = target: Estrogen Receptor (ERα) in MCF-7 cells (Homo sapiens (Human), UniProt P03372); assay: MCF-7 ER down-regulation assay (immuno-fluorescence); format: cell-based; conditions: for % downregulation (in brackets): maximum downregulation
[3] = Log D (shake flask, 1-octanol/aqueous buffer); format: physicochemical; conditions: 1-octanol/aqueous buffer, pH 7.4, pH 7.4
[4] = Thermodynamic solubility (shake-flask); format: physicochemical; conditions: aqueous phosphate buffer, 25 °C, pH 7.4, aqueous buffer, thermodynamic from solid, phosphate buffer pH 7.4, 24 hours
[5] = Human plasma protein binding (equilibrium dialysis); format: in vitro ADME
Method: The automated equilibrium dialysis assay in human plasma uses the RED (Rapid Equilibrium Dialysis) Device and sample handling. The assay generally runs over two to three days including delivery of results. After dialysis for 18 hours, plasma and buffer samples are prepared for analysis by liquid chromatography and mass spectrometry. Samples are generally tested in singlicates and quantified by LC/MSMS by using a 7-point calibration curve in plasma. The compounds are pooled together in plasma pools up to 10 compounds. Three reference compounds are used in each run, Propranolol, Metoprolol and Warfarin. Warfarin is used as a control in each pool and Propranolol and Metoprolol are placed randomly in each run. An in-house Excel macro is used for preparation of files for the robot and the mass spectrometer and is also used for the calculations of fraction unbound (fu %) in plasma.

hERG potassium channel = hERG potassium channel (Homo sapiens (Human), UniProt Q12809)
Sequence of hERG potassium channel (Q12809 whole entry): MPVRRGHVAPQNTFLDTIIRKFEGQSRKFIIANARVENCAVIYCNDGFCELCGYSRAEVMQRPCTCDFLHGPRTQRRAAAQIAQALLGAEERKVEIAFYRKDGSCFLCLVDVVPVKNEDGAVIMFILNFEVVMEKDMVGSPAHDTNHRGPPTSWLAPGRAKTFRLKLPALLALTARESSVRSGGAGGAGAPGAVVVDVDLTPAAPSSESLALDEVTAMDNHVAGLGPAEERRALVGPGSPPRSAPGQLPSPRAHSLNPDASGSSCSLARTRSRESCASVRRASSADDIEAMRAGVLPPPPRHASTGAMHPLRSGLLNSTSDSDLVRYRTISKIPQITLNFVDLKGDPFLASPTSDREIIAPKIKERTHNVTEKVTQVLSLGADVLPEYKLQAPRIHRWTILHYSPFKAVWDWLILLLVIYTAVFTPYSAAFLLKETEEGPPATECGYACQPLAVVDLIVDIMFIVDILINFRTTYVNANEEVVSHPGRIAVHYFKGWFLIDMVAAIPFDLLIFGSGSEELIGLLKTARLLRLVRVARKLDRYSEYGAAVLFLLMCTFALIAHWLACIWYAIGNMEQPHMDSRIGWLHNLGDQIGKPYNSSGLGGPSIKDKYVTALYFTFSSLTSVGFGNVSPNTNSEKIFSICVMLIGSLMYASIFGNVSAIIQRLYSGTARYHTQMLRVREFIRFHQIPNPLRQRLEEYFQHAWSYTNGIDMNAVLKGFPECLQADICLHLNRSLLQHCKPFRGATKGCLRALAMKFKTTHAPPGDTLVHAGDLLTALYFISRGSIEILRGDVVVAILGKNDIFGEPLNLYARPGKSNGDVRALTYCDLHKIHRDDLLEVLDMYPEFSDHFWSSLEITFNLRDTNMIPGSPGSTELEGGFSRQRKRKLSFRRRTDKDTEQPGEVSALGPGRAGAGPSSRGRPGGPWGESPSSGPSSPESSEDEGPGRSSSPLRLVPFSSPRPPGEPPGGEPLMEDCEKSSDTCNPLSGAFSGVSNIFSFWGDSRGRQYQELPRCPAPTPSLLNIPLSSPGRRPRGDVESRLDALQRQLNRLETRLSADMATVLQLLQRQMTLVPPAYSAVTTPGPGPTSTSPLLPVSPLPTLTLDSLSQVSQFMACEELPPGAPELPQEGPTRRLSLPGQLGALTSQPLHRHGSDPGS
Method: The assay was conducted as follows with all reagents used at room temperature unless otherwise stated.
All compounds were acoustically dispensed in quadruplicate using a Labcyte Echo.
Calculation of results is performed using APC package within Genedata. For the routine normalization of well data with Neutral and Inhibitor control well groups as reference, GeneData Assay Analyzer uses the following equation to normalize the signal values to the desired signal range:
[formula] x is the measured raw signal value of a well is the median of the measured signal values for the Central Reference (Neutral) wells on a plate is the median of the measured signal values for the Scale Reference (Inhibitor) wells on a plate CR is the desired median normalized value for the Central Reference (Neutral) SR is the desired median normalized value for the Scale Reference (Inhibitor)

Sequence of recombinant human Estrogen Receptor alpha ligand binding domain (ER alpha-LBD (GST)) (P03372 307-554): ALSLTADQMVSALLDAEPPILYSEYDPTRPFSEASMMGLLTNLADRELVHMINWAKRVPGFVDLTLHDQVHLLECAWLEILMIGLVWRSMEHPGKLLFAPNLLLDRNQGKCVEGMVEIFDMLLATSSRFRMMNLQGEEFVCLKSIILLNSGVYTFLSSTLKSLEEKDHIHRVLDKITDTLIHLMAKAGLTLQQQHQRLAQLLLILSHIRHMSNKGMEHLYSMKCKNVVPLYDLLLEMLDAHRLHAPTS
Sequence of Estrogen Receptor (ERα) in MCF-7 cells (P03372 whole entry): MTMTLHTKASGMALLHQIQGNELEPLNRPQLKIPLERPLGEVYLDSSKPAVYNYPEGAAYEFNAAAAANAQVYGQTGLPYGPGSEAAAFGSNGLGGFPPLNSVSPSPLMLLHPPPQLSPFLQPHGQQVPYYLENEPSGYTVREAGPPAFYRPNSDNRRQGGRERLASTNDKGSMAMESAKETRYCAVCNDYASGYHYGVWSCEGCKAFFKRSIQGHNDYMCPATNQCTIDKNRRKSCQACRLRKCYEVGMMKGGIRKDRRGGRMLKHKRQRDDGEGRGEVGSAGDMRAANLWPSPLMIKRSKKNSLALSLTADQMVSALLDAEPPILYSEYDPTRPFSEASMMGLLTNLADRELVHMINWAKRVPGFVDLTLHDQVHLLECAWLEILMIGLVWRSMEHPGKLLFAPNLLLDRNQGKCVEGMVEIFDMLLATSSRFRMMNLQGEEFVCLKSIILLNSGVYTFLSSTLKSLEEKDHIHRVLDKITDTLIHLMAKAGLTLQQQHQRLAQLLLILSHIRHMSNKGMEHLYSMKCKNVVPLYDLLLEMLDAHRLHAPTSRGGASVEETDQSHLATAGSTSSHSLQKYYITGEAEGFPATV

| Structure (SMILES) | pIC50 [1] | pIC50 [2] | logD [3] | solubility at 24 h [4] | Human plasma protein binding (% free) [5] | pIC50 (hERG potassium channel) | % downregulation (in brackets) [2] |
| --- | --- | --- | --- | --- | --- | --- | --- |
| Cc1c(OCCN(C)CCCF)ncc(F)c1[C@@H]1c2[nH]c3ccccc3c2C[C@@H](C)N1C(C)CC(=O)O (single isomer, unassigned) [Example 158] | 8.82 | 9.00 | 1.8 | > 1000 µM | 21 % free | < 4.40 |  |
| C[C@@H]1Cc2c([nH]c3ccccc23)[C@@H](c2cc(OCCNCCCF)ncc2F)N1CC(F)(F)F [Example 39, 3-fluoroN-(2-((5-fluoro-4-((1R,3R)-3-methyl-2-(2,2,2-trifluoroethyl)-2,3,4,9-tetrahydro-1H-pyrido[3,4-b]indol-1-yl)pyridin-2-yl)oxy)ethyl)propan-1-amine] | 8.85 | 9.59 | 3.6 | 259 µM (≈ 125 µg/mL) |  | 5.41 |  |
| COc1cnc(NCCNCCCF)cc1[C@@H]1c2[nH]c3ccccc3c2C[C@@H](C)N1CC(F)(F)F [Example 42] | 8.43 | 8.72 | 2.9 | 349 µM (≈ 172 µg/mL) |  | 5.15 |  |
| COc1ccc(O[C@@H](C)CNCCCF)cc1[C@@H]1c2[nH]c3ccccc3c2C[C@@H](C)N1CC(F)(F)CO [Example 48, 2,2-difluoro-3-((1R,3R)-1-(5-(((S)-1-((3-fluoropropyl)amino)propan-2-yl)oxy)-2-methoxyphenyl)-3-methyl-1,3,4,9-tetrahydro-2H-pyrido[3,4-b]indol-2-yl)propan-1-ol] | 8.36 | 7.89 | 2.8 | 307 µM (≈ 160 µg/mL) |  | 5.57 |  |
| Cc1c(OCCNCCCF)ccc(F)c1[C@@H]1c2[nH]c3ccccc3c2C[C@@H](C)N1CCC#N [Example 87, 3-((1R,3R)-1-(6-fluoro-3-(2-((3-fluoropropyl)amino)ethoxy)-2-methylphenyl)-3-methyl-1,3,4,9-tetrahydro-2H-pyrido[3,4-b]indol-2-yl)propanenitrile] | 9.27 | 10.19 | 3.1 | 71 µM (≈ 33.1 µg/mL) | 1.6 % free |  |  |
| C[C@@H]1Cc2c([nH]c3ccccc23)[C@@H](c2nccc(OCCNCCCF)c2Cl)N1CC(F)(F)F [Example 93, N-(2-((3-chloro-2-((1S,3R)-3-methyl-2-(2,2,2-trifluoroethyl)-2,3,4,9-tetrahydro-1H-pyrido[3,4-b]indol-1-yl)pyridin-4-yl)oxy)ethyl)-3-fluoropropan-1-amine] |  |  | 4.3 | 0.5 µM (≈ 0.249 µg/mL) | 0.34 % free | 5.18 |  |
| C[C@@H]1Cc2c([nH]c3ccccc23)[C@@H](c2nccc(OCCNCCCF)c2F)N1CC(F)F [Example 98, N-(2-((2-((1S,3R)-2-(2,2-difluoroethyl)-3-methyl-2,3,4,9-tetrahydro-1H-pyrido[3,4-b]indol-1-yl)-3-fluoropyridin-4-yl)oxy)ethyl)-3-fluoropropan-1-amine] | 8.72 | 8.92 | 2.3 | 594 µM (≈ 276 µg/mL) |  | < 4.49 |  |
| C[C@@H]1Cc2c([nH]c3ccccc23)[C@@H](c2nccc(OCCNCCCF)c2F)N1CC1(F)CC1 [Example 99, 3-fluoro-N-(2-((3-fluoro-2-((1S,3R)-2-((1-fluorocyclopropyl)methyl)-3-methyl-2,3,4,9-tetrahydro-1H-pyrido[3,4-b]indol-1-yl)pyridin-4-yl)oxy)ethyl)propan-1-amine] | 8.47 | 8.42 | 2.1 | 285 µM (≈ 135 µg/mL) |  | 4.70 |  |
| C[C@@H]1Cc2c([nH]c3ccccc23)[C@@H](c2nccc(OCCNCCCF)c2F)N1CC1(F)COC1 [Example 100, 3-fluoro-N-(2-((3-fluoro-2-((1S,3R)-2-((3-fluorooxetan-3-yl)methyl)-3-methyl-2,3,4,9-tetrahydro-1H-pyrido[3,4-b]indol-1-yl)pyridin-4-yl)oxy)ethyl)propan-1-amine] | 8.28 | 7.96 | 2.5 | > 1000 µM |  | 4.72 |  |
| C[C@@H]1Cc2c([nH]c3ccccc23)[C@@H](c2cncc(OCCNCCCF)c2)N1CC(F)(F)F [Example 101, 3-fluoro-N-(2-((5-((1R,3R)-3-methyl-2-(2,2,2-trifluoroethyl)-2,3,4,9-tetrahydro-1H-pyrido[3,4-b]indol-1-yl)pyridin-3-yl)oxy)ethyl)propan-1-amine] | 8.04 | 7.57 | 3.3 | 329 µM (≈ 153 µg/mL) | 8.4 % free |  |  |
| C[C@@H]1Cc2c([nH]c3ccccc23)[C@@H](c2ccnc(OCCNCCCF)c2Cl)N1CC(F)(F)CO [Example 104, 3-((1R,3R)-1-(3-chloro-2-(2-((3-fluoropropyl)amino)ethoxy)pyridin-4-yl)-3-methyl-1,3,4,9-tetrahydro-2H-pyrido[3,4-b]indol-2-yl)-2,2-difluoropropan-1-ol] | 9.14 | 9.77 | 3 | 431 µM (≈ 220 µg/mL) | 2.8 % free |  |  |
| Cc1c([C@@H]2c3[nH]c4ccccc4c3C[C@@H](C)N2CC(F)(F)F)ccnc1OCCNCCCF [Example 106, 3-fluoro-N-(2-((3-methyl-4-((1R,3R)-3-methyl-2-(2,2,2-trifluoroethyl)-2,3,4,9-tetrahydro-1H-pyrido[3,4-b]indol-1-yl)pyridin-2-yl)oxy)ethyl)propan-1-amine] | 9.04 | 10.02 | 3.9 | 264 µM (≈ 126 µg/mL) | 0.34 % free |  |  |
| C[C@@H]1Cc2c([nH]c3ccc(F)cc23)[C@@H](c2c(F)cnc(OCCNCCCF)c2F)N1CC1(F)CC1 [Example 109, N-(2-((3,5-difluoro-4-((1R,3R)-6-fluoro-2-((1-fluorocyclopropyl)methyl)-3-methyl-2,3,4,9-tetrahydro-1H-pyrido[3,4-b]indol-1-yl)pyridin-2-yl)oxy)ethyl)-3-fluoropropan-1-amine] | 8.92 | 9.39 | > 3.6 | 176 µM (≈ 89.5 µg/mL) | 1.9 % free |  |  |
| Cc1c(OCCNCCCF)ncnc1[C@@H]1c2[nH]c3ccccc3c2C[C@@H](C)N1CC(F)(F)CO [Example 115, 2,2-difluoro-3-((1S,3R)-1-(6-(2-((3-fluoropropyl)amino)ethoxy)-5-methylpyrimidin-4-yl)-3-methyl-1,3,4,9-tetrahydro-2H-pyrido[3,4-b]indol-2-yl)propan-1-ol] | 9.00 | 9.51 | 2.1 | 983 µM (≈ 483 µg/mL) | 11 % free |  |  |
| Cc1c(OCCNCCCF)ccc(F)c1[C@@H]1c2[nH]c3ccccc3c2C[C@@H](C)N1CC(F)(F)C(=O)O [Example 118, 2,2-difluoro-3-((1R,3R)-1-(6-fluoro-3-(2-((3-fluoropropyl)amino)ethoxy)-2-methylphenyl)-3-methyl-1,3,4,9-tetrahydro-2H-pyrido[3,4-b]indol-2-yl)propanoic acid] | 8.92 | 8.26 | 1.8 | 111 µM (≈ 57.9 µg/mL) | 8.4 % free |  |  |
| Cc1c(OCCNCCCF)ccc(F)c1[C@@H]1c2[nH]c3ccccc3c2CC(C)(C)N1C[C@H](C)C(=O)O [Example 134, (S)-3-((R)-1-(6-fluoro-3-(2-((3-fluoropropyl)amino)ethoxy)-2-methylphenyl)-3,3-dimethyl-1,3,4,9-tetrahydro-2H-pyrido[3,4-b]indol-2-yl)-2-methylpropanoic acid] | 8.24 | 8.80 | 0.6 | > 1000 µM | 36 % free |  | 85% |
| Cc1c(NCCNCCCF)ccc(F)c1[C@@H]1c2[nH]c3ccccc3c2C[C@@H](C)N1C[C@H](C)C(=O)O [Example 135, (S)-3-((1R,3R)-1-(6-fluoro-3-((2-((3-fluoropropyl)amino)ethyl)amino)-2-methylphenyl)-3-methyl-1,3,4,9-tetrahydro-2H-pyrido[3,4-b]indol-2-yl)-2-methylpropanoic acid] | 6.80 | 7.80 | 0.5 | > 1000 µM | 32 % free |  |  |
| Cc1c(N(C)CCNCCCF)ccc(F)c1[C@@H]1c2[nH]c3ccccc3c2C[C@@H](C)N1C[C@H](C)C(=O)O [Example 136, (S)-3-((1R,3R)-1-(6-fluoro-3-((2-((3-fluoropropyl)amino)ethyl)(methyl)amino)-2-methylphenyl)-3-methyl-1,3,4,9-tetrahydro-2H-pyrido[3,4-b]indol-2-yl)-2-methylpropanoic acid] | 8.70 | < 6.52 | 1.1 | 328 µM (≈ 168 µg/mL) | 2.1 % free |  |  |
| C[C@@H]1Cc2c([nH]c3ccccc23)[C@@H](c2c(F)ccc(OCCN(C)CCCF)c2C(F)F)N1C[C@H](C)C(=O)O [Example 148, (S)-3-((1R,3R)-1-(2-(difluoromethyl)-6-fluoro-3-(2-((3-fluoropropyl)(methyl)amino)ethoxy)phenyl)-3-methyl-1,3,4,9-tetrahydro-2H-pyrido[3,4-b]indol-2-yl)-2-methylpropanoic acid] | 8.96 | 9.38 | 1.5 | 788 µM (≈ 433 µg/mL) | 10 % free |  | 68% |
| Cc1c(OCCN(C)CCCF)ccc(F)c1[C@@H]1c2[nH]c3ccccc3c2C[C@@H](C)N1CCC(=O)O [Example 163, 3-((1R,3R)-1-(6-fluoro-3-(2-((3-fluoropropyl)(methyl)amino)ethoxy)-2-methylphenyl)-3-methyl-1,3,4,9-tetrahydro-2H-pyrido[3,4-b]indol-2-yl)propanoic acid] | 8.48 | 8.92 | 0.7 | > 1000 µM | 49 % free |  |  |
